Here are results for 19 molecules from PubChem BioAssay (NCI).

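Five compound concentrations were applied to cells in 96-well plates for 48 hours; endpoints were derived by simple linear interpolation of the resulting dose-response curve. The concentration for 50% growth inhibition is given as GI50. At the TGI there is no net growth.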

Some test systems named below: MALME-3M melanoma; SN12C renal; A549 NSCLC; SK-MEL-2 melanoma; HCT-15 colon; HOP-62 NSCLC; U251 CNS; NCI-H522 lung; HCC-2998 colon.
What all share (assay): NCI-60 cell line screen, 48 h

Turning to `O=C1NC2(CCCCC2)C2CCCCC=C12` (centres undefined), the TGI with MALME-3M melanoma, in the assay on SN12C renal, with A549 NSCLC, in the assay on SK-MEL-2 melanoma, with HCT-15 colon and in the assay with HOP-62 NSCLC was > 100 µM throughout. Moreover, the TGI in the assay on U251 CNS and in the assay on NCI-H522 lung was > 100 µM in each case.
As to `CC(=O)CCc1ccc(Oc2c3c(nc4ccccc24)OCC3)cc1`, the GI50 is 32.5 µM with HCC-2998 colon; 11.7 µM in the assay with A549 NSCLC; > 100 µM with SK-MEL-2 melanoma; 58.8 µM in the assay on HCT-15 colon; > 100 µM in the assay on HOP-62 NSCLC; 41.7 µM with U251 CNS. The GI50 in the assay with NCI-H522 lung was 56.2 µM. Besides, the TGI in the assay on HCC-2998 colon was 91.8 µM; in the assay with A549 NSCLC it was > 100 µM; with SK-MEL-2 melanoma, > 100 µM; in the assay on HCT-15 colon it was > 100 µM; with HOP-62 NSCLC, > 100 µM; in the assay on U251 CNS, > 100 µM. Further, in the assay with NCI-H522 lung, the TGI is > 100 µM.
Regarding `C[C@]12CC(C=O)C(=O)C(O)=C1CC[C@@H]1C2CC[C@@]2(C)C1CC[C@]2(C)O` (some centres undefined), the TGI in the assay on HCC-2998 colon is 31.1 µM; in the assay with MALME-3M melanoma, 22 µM; in the assay with SN12C renal, 42.4 µM; in the assay on A549 NSCLC it was > 100 µM; in the assay on SK-MEL-2 melanoma, 26.6 µM; in the assay on HCT-15 colon, 60.8 µM. Moreover, the TGI in the assay with HOP-62 NSCLC was > 100 µM; in the assay with U251 CNS, 44.9 µM.
As for `COC(=O)c1ccc(C(=O)OC)c2nc3cc(Cl)ccc3nc12`, the TGI in the assay on HCC-2998 colon, in the assay with MALME-3M melanoma, with SN12C renal, with A549 NSCLC, with SK-MEL-2 melanoma and in the assay on HCT-15 colon was > 100 µM each time. Moreover, the TGI in the assay on HOP-62 NSCLC, in the assay on U251 CNS and in the assay on NCI-H522 lung was > 100 µM throughout.
With `CCC[CH2][Sn]([CH2]CCC)([O]C(=O)c1cc(F)ccc1F)[O]C(=O)c1cc(F)ccc1F`, the GI50 with HCC-2998 colon is 1.43 µM; in the assay with MALME-3M melanoma it was 0.703 µM; with SN12C renal, 1.16 µM; in the assay with A549 NSCLC it was 7.72 µM; with SK-MEL-2 melanoma it was 0.649 µM; in the assay on HCT-15 colon, 1.18 µM. Besides, the GI50 was 2.39 µM in the assay on HOP-62 NSCLC, 0.888 µM in the assay on U251 CNS and 0.108 µM with NCI-H522 lung. In addition, the TGI in the assay on HCC-2998 colon was 2.76 µM; with MALME-3M melanoma, 2.1 µM; in the assay on SN12C renal, 2.39 µM; with A549 NSCLC it was 21 µM; with SK-MEL-2 melanoma, 1.87 µM; in the assay with HCT-15 colon, 2.44 µM. Moreover, the TGI was found to be 4.04 µM in the assay with HOP-62 NSCLC, 2.11 µM in the assay on U251 CNS and 0.23 µM with NCI-H522 lung.
For the molecule `CCCS(=O)c1nc(COC(=O)NC)c(COC(=O)NC)n1C` (centres undefined), the TGI with HCC-2998 colon, with MALME-3M melanoma, in the assay with SN12C renal, with A549 NSCLC, in the assay with SK-MEL-2 melanoma and in the assay on HCT-15 colon was > 100 µM each time. The TGI with HOP-62 NSCLC, in the assay with U251 CNS and in the assay on NCI-H522 lung was > 100 µM throughout.
Consider `O=[N+]([O-])c1cccc(S(=O)(=O)N/N=C/c2cc(I)cc([N+](=O)[O-])c2O)c1`, for which the TGI with HCC-2998 colon was > 100 µM; with MALME-3M melanoma, 64.2 µM; with SN12C renal, 64.6 µM; with A549 NSCLC it was > 100 µM; in the assay with SK-MEL-2 melanoma, 39 µM; in the assay with HCT-15 colon it was 65.5 µM. For the same molecule, the TGI with HOP-62 NSCLC turned out to be 57.2 µM; in the assay on U251 CNS it was 57.8 µM; in the assay with NCI-H522 lung it was 35.9 µM.
Consider `O=C1C(Cl)=C(Cl)C(=O)N1c1cccc(C(F)(F)F)c1`, for which the TGI with HCC-2998 colon, with MALME-3M melanoma, in the assay on SN12C renal, in the assay on A549 NSCLC, in the assay with SK-MEL-2 melanoma and in the assay with HCT-15 colon was > 100 µM each time. Moreover, the TGI in the assay on HOP-62 NSCLC was > 100 µM; in the assay with U251 CNS, > 100 µM; with NCI-H522 lung, 26.4 µM.
For `COC(=O)C12C34C=CC5(CCC6(C=CC1(CC3)O6)C52C(=O)OC)O4` (centres undefined), the TGI in the assay on HCC-2998 colon, in the assay with MALME-3M melanoma, in the assay on SN12C renal, in the assay with A549 NSCLC, in the assay on SK-MEL-2 melanoma and with HOP-62 NSCLC was > 100 µM throughout. The TGI in the assay with U251 CNS and with NCI-H522 lung was > 100 µM each time.
Turning to `CCOC(=O)/C(C#N)=C\Sc1ccccc1`, the TGI in the assay on SN12C renal was 31.7 µM; in the assay with A549 NSCLC, > 100 µM; with SK-MEL-2 melanoma, 74.3 µM; in the assay on HOP-62 NSCLC, 86.5 µM; with U251 CNS, 29 µM; with NCI-H522 lung, 11.3 µM.
Regarding `CC(C)N1C(C)[C@@H](c2ccccc2)O[P@@]1(=O)CC1=CCCCC1` (some centres undefined), the TGI in the assay on HCC-2998 colon, with MALME-3M melanoma, with SN12C renal, in the assay with A549 NSCLC, with SK-MEL-2 melanoma and with HCT-15 colon was > 100 µM in each case. Further, the TGI with HOP-62 NSCLC, in the assay on U251 CNS and with NCI-H522 lung was > 100 µM in each case.
On to `Nn1c(-c2cccc(Cl)c2)nc2ccccc2c1=O`, for which the TGI in the assay on HCC-2998 colon, in the assay on MALME-3M melanoma, in the assay with SN12C renal, in the assay on A549 NSCLC, in the assay with SK-MEL-2 melanoma and with HCT-15 colon was > 100 µM in each case. For the same molecule, the TGI in the assay on HOP-62 NSCLC, in the assay on U251 CNS and in the assay with NCI-H522 lung was > 100 µM throughout.
`CN(C)N=Nc1cccc(C(N)=O)c1`: the TGI in the assay with HCC-2998 colon, with MALME-3M melanoma, in the assay on SN12C renal, with A549 NSCLC, in the assay on SK-MEL-2 melanoma and in the assay with HCT-15 colon was > 100 µM throughout. In addition, the TGI in the assay on U251 CNS is > 100 µM.
As to `CC(=O)[CH-]C(=O)c1ccccc1.CC(=O)[CH-]C(=O)c1ccccc1.CC[C@H](/C=C/C(C)[C@H]1CCC2[C@@H]3CC=C4C[C@@H]([O-])CC[C@]4(C)C3CC[C@@]21C)C(C)C.CC[C@H](/C=C/C(C)[C@H]1CCC2[C@@H]3CC=C4C[C@@H]([O-])CC[C@]4(C)C3CC[C@@]21C)C(C)C.Cl.[Ti+4]` (some centres undefined), the GI50 in the assay with HCC-2998 colon is > 25 µM; in the assay with MALME-3M melanoma, 10.5 µM; in the assay with SN12C renal it was > 25 µM; in the assay on A549 NSCLC, > 25 µM; in the assay on SK-MEL-2 melanoma, > 25 µM; with HCT-15 colon, > 25 µM. The GI50 with HOP-62 NSCLC, with U251 CNS and with NCI-H522 lung was > 25 µM in each case. Also, the TGI with HCC-2998 colon, in the assay on MALME-3M melanoma, in the assay on SN12C renal, with A549 NSCLC, with SK-MEL-2 melanoma and with HCT-15 colon was > 25 µM each time. The TGI with HOP-62 NSCLC, in the assay on U251 CNS and in the assay on NCI-H522 lung was > 25 µM each time.
In the case of `CN(CCCN1C(=O)c2cccc3cc([N+](=O)[O-])cc(c23)C1=O)CCN(C)CCCN1C(=O)c2cccc3cc([N+](=O)[O-])cc(c23)C1=O`, the TGI with HCC-2998 colon, with MALME-3M melanoma, with SN12C renal, with A549 NSCLC, in the assay on SK-MEL-2 melanoma and in the assay with HCT-15 colon was > 39.3 µM throughout. Further, the TGI with HOP-62 NSCLC, with U251 CNS and with NCI-H522 lung was > 39.3 µM throughout.
`COc1cc([C@@H]2OC(=O)C3C2C(=O)O[C@H]3c2ccc(O)c(OC)c2)ccc1O` (some centres undefined): the TGI with HCC-2998 colon, with MALME-3M melanoma, with SN12C renal, in the assay on A549 NSCLC, in the assay on HCT-15 colon and in the assay on HOP-62 NSCLC was > 100 µM in each case. Besides, the TGI with U251 CNS is > 100 µM.
Regarding `COc1cc2c3c(n([C@@H]4CCOC4)c(=O)c2cc1OC)-c1cc2c(cc1C3=O)OCO2`, the GI50 with SN12C renal is < 0.01 µM; in the assay on A549 NSCLC, 0.0107 µM; with NCI-H522 lung it was < 0.01 µM. Further, the TGI in the assay with SN12C renal, with A549 NSCLC and with NCI-H522 lung was > 100 µM throughout.
As to `COc1cccc2c(SCC(=O)Nc3ccccc3-c3ccccc3NC(=O)CSc3c4ccccc4nc4c(OC)cccc34)c3ccccc3nc12`, the TGI in the assay with HCC-2998 colon, with SN12C renal, in the assay on A549 NSCLC, in the assay with SK-MEL-2 melanoma, in the assay with HCT-15 colon and in the assay with HOP-62 NSCLC was > 100 µM throughout. Further, the TGI in the assay with U251 CNS was > 100 µM.
As for `CCCCCCCCC(C)CCCCCCCCC(=O)OCC(COP(=O)([O-])OCC[N+](C)(C)C)OC(=O)CCCCCCCCC(C)CCCCCCCC` (centres undefined), the TGI with HCC-2998 colon, in the assay with MALME-3M melanoma, in the assay on SN12C renal, with A549 NSCLC, in the assay with SK-MEL-2 melanoma and in the assay on HCT-15 colon was > 100 µM each time. Moreover, the TGI in the assay with HOP-62 NSCLC, with U251 CNS and with NCI-H522 lung was > 100 µM each time.
